Experimental data taken from ChEMBL document CHEMBL3132769, “Fragment growing to retain or alter the selectivity of anchored kinase hinge-binding fragments” (Medchemcomm, 2014).

Columns and labels:
[1] = target: T1, Serine/threonine-protein kinase D2 (Homo sapiens) (UniProt Q9BZL6); experiment: Inhibition of human full length PKD2 expressed in baculovirus assessed as substrate phosphorylation using fluorescence-labelled peptides as substrate at 0.06 uM after 90 mins by microfluidic peptide phosphorylation assay
T1 sequence (whole entry): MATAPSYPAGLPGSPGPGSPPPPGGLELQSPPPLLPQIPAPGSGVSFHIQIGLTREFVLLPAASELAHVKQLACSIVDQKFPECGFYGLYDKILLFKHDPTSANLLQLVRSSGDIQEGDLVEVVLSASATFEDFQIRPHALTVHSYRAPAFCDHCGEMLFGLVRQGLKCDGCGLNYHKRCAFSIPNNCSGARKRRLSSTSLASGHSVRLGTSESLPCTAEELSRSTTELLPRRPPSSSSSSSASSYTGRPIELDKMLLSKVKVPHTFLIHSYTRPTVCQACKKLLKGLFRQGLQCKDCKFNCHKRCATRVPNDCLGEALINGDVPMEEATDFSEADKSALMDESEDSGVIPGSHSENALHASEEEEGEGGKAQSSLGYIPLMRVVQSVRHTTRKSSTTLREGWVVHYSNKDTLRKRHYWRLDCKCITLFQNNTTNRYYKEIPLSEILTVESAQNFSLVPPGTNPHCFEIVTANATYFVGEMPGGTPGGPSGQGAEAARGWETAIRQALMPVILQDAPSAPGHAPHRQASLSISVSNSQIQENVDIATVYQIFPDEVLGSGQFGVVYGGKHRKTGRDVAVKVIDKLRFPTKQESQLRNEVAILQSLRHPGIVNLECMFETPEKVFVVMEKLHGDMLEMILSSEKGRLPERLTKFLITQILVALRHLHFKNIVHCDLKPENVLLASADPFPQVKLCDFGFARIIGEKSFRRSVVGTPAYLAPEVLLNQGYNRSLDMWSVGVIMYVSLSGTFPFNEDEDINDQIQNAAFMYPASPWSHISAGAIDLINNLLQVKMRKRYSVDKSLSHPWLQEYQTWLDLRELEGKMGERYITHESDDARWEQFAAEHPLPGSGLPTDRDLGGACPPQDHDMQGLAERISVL

[2] = target: Dual specificity tyrosine-phosphorylation-regulated kinase 1A (Rattus norvegicus) (UniProt Q63470); experiment: Inhibition of rat full length DYRK1a expressed in Escherichia coli cell assessed as substrate phosphorylation using fluorescence-labelled peptides as substrate at 0.2 uM after 90 mins by microfluidic peptide phosphorylation assay
[3] = target: Serine/threonine-protein kinase MARK1 (Homo sapiens) (UniProt Q9P0L2); experiment: Inhibition of human full length MARK1 expressed in baculovirus assessed as substrate phosphorylation using fluorescence-labelled peptides as substrate at […] after 90 mins by microfluidic peptide phosphorylation assay
Serine/threonine-protein kinase MARK1 (Homo sapiens), sequence (Q9P0L2 whole entry, looked up, the tested form may be a part): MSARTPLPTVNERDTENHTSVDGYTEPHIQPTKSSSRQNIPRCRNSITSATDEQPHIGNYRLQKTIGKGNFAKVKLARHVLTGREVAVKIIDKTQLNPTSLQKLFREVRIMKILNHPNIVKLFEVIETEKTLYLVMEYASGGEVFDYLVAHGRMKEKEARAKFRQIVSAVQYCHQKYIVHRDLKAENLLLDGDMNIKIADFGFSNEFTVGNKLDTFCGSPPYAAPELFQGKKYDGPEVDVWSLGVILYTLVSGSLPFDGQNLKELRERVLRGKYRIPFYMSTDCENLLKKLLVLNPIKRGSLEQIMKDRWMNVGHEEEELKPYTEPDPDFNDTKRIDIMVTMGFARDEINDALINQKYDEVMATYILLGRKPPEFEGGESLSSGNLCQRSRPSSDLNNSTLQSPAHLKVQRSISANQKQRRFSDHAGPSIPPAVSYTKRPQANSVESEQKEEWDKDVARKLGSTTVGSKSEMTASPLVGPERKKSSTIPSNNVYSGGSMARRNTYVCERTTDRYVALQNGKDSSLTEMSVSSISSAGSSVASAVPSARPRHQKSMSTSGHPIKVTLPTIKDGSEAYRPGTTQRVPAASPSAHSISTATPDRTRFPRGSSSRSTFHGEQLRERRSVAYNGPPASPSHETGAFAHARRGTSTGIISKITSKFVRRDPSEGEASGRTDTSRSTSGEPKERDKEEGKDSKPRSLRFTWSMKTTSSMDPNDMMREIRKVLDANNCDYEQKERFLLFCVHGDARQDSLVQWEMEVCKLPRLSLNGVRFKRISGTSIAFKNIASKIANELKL

[4] = target: Tyrosine-protein kinase HCK (Homo sapiens) (UniProt P08631); experiment: Inhibition of human HCK catalytic domain expressed in baculovirus assessed as substrate phosphorylation using fluorescence-labelled peptides as substrate at 70 uM after 90 mins by microfluidic peptide phosphorylation assay
Tyrosine-protein kinase HCK (Homo sapiens), sequence (P08631 2-526 limits assumed): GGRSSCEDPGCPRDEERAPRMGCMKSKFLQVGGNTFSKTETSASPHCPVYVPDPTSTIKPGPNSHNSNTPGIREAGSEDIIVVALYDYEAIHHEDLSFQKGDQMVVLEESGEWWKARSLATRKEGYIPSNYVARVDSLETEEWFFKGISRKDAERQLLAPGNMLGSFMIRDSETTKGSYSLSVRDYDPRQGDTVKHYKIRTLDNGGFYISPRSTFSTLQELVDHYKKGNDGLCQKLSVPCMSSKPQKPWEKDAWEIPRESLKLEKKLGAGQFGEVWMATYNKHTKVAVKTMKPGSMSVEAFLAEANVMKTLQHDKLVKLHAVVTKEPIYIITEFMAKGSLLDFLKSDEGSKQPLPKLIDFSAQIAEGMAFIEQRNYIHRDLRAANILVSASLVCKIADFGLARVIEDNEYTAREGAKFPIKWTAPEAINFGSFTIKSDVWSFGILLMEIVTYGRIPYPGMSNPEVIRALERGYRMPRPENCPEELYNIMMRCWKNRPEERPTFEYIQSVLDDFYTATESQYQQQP

[5] = target: T2, cGMP-dependent protein kinase 1 (Homo sapiens) (UniProt Q13976); experiment: Inhibition of human full length PKG-1a expressed in baculovirus assessed as substrate phosphorylation using fluorescence-labelled peptides as substrate at 70 uM after 90 mins by microfluidic peptide phosphorylation assay
T2 sequence (whole entry): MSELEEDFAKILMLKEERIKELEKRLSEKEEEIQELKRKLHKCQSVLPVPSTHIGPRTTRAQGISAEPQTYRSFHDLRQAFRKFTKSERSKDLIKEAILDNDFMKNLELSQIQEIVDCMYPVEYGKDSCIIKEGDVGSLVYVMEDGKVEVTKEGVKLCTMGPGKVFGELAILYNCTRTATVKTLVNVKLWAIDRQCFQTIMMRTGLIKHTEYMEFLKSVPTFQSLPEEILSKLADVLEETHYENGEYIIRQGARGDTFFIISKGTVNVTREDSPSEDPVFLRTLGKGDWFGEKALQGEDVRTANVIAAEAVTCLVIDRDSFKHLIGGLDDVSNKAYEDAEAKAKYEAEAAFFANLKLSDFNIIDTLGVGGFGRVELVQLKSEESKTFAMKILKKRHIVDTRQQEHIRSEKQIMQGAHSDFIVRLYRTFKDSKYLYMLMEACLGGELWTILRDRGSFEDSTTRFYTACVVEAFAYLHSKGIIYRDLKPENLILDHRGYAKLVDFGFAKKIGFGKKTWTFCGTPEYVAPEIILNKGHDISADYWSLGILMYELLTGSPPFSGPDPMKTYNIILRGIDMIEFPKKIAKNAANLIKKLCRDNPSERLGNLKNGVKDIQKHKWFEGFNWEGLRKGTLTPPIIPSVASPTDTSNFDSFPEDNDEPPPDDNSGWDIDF

[6] = organism: Homo sapiens; experiment: Inhibition of human full length PKA expressed in baculovirus assessed as substrate phosphorylation using fluorescence-labelled peptides as substrate at 70 uM after 90 mins by microfluidic peptide phosphorylation assay
[7] = target: T3, Serine/threonine-protein kinase DCLK2 (Homo sapiens) (UniProt Q8N568); experiment: Inhibition of human full length DCAMKL2 expressed in baculovirus assessed as substrate phosphorylation using fluorescence-labelled peptides as substrate at 1000 uM after 90 mins by microfluidic peptide phosphorylation assay
T3 sequence (whole entry): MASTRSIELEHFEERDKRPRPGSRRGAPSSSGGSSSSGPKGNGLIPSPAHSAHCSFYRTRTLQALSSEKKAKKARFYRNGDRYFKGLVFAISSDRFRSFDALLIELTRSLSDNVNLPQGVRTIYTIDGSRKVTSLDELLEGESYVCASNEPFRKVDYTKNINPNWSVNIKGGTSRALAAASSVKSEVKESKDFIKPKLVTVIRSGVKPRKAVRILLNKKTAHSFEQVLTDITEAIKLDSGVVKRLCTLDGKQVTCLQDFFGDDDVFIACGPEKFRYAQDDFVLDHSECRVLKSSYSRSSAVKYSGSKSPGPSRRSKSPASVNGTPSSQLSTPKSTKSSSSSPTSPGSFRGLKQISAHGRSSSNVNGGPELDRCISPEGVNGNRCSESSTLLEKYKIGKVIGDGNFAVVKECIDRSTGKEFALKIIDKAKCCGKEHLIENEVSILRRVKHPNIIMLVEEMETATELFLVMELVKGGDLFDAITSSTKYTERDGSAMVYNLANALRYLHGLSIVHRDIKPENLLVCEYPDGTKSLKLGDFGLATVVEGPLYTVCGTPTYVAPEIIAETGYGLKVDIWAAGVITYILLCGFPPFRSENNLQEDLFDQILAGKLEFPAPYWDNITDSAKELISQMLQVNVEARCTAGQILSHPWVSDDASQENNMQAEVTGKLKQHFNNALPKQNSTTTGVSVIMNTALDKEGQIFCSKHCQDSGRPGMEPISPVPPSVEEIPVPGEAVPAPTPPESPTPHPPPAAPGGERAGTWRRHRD

[8] = target: Fibroblast growth factor receptor 3 (Homo sapiens) (UniProt P22607); experiment: Inhibition of human FGFR3 catalytic domain expressed in baculovirus assessed as substrate phosphorylation using fluorescence-labelled peptides as substrate at 2 uM after 90 mins by microfluidic peptide phosphorylation assay
Fibroblast growth factor receptor 3 (Homo sapiens), sequence (P22607 23-806 limits assumed): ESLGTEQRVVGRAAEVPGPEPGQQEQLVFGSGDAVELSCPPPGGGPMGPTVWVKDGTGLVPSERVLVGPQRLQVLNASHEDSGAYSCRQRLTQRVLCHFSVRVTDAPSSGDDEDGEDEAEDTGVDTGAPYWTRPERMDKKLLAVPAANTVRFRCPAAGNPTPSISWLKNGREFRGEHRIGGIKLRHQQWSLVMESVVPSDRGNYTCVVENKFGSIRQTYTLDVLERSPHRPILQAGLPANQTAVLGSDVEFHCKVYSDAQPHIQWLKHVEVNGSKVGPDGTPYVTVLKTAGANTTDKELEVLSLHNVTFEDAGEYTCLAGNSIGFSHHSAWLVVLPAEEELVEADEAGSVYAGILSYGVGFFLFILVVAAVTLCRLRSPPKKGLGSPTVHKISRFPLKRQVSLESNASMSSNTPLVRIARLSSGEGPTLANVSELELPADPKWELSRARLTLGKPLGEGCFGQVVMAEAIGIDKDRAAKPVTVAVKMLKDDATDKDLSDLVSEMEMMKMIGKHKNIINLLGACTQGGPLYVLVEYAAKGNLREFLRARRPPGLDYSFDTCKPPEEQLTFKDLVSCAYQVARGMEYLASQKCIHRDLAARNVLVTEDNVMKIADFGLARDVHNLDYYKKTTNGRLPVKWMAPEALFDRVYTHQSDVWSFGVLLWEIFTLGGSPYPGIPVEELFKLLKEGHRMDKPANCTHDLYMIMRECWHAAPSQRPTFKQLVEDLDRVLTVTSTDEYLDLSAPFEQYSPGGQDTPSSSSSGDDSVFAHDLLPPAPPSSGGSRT

In the case of NC1(Cc2ccc(Cl)cc2)CCN(c2ncnc3[nH]ccc23)CC1, the inhibition [1] is reported as 1.5%.
Work on Clc1ccc(C2(c3ccc(-c4ncnc5[nH]cnc45)cc3)CCNCC2)cc1 yielded an inhibition [2] of 11%.
Compound COC(=O)c1cnc(Nc2cnc(C#N)cn2)cc1NCC1CCNCC1 has an inhibition [3] of 5%.
CNCc1ccc(-c2ncnc3[nH]cnc23)cc1 was tested, and the inhibition [4] was 18.5%, the inhibition [5] was 97.5% and the inhibition [6] was 96%.
c1cnc2[nH]ccc2c1 showed an inhibition [7] of 15%.
NC1CCN(c2ncnc3[nH]ccc23)CC1 showed an inhibition [8] of 0%.
